Patent US8178523B2, “Compounds for the treatment of hepatitis C” (Bristol-Myers Squibb Company, priority 2008, dated 2012)

Legend:
HCV NS5B RdRp = target: T1, HCV NS5B RdRp (Hepatitis C virus genotype 1b, UniProt Q9WMX2); test: HCV NS5B RdRp enzyme assay; type: biochemical; settings: HCV NS5B genotype 1b; standard or modified RdRp assay not given; numeric values
T1 construct: The protein was expressed with an 18 amino acid C-terminal truncation to enhance the solubility; made in house; host or cells: E. coli BL21(DE3)
T1 sequence (Q9WMX2 2420-2992): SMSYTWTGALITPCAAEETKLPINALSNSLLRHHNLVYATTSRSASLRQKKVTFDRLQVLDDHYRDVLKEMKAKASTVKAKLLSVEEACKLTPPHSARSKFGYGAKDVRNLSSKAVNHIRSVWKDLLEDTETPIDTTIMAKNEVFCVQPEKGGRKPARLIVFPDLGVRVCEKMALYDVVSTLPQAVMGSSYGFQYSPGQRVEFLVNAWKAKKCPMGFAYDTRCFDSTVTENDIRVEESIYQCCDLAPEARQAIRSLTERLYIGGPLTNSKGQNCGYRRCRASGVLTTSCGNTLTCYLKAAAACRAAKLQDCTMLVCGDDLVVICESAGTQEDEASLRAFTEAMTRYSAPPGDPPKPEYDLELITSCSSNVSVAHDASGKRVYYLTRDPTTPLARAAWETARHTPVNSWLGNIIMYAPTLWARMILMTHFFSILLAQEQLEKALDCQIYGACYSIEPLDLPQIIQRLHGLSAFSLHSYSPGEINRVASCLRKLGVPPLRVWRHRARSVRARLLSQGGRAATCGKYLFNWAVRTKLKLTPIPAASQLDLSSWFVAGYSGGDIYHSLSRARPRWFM
Method: HCV NS5B RdRp cloning, expression, and purification. The cDNA encoding the NS5B protein of HCV, genotype 1b, was cloned into the pET21a expression vector. The protein was expressed with an 18 amino acid C-terminal truncation to enhance the solubility. The E. coli competent cell line BL21(DE3) was used for expression of the protein. Cultures were grown at 37° C. for ˜4 hours until the cultures reached an optical density of 2.0 at 600 nm. The cultures were cooled to 20° C. and induced with 1 mM […]. Fresh ampicillin was added to a final concentration of 50 μg/ml and the cells were grown overnight at 20° C.
Cell pellets (3 L) were lysed for purification to yield 15-24 mgs of purified NS5B. The lysis buffer consisted of 20 mM Tris-HCl, pH 7.4, 500 mM NaCl, 0.5% triton X-100, 1 mM DTT, 1 mM EDTA, 20% glycerol, 0.5 mg/ml lysozyme, 10 mM MgCl2, 15 ug/ml deoxyribonuclease I, and Complete TM protease inhibitor tablets (Roche). After addition of the lysis buffer, frozen cell pellets were resuspended using a tissue homogenizer. To reduce the viscosity of the sample, aliquots of the lysate were sonicated on ice using a microtip attached to a Branson sonicator. The sonicated lysate was centrifuged at 100,000×g for 1 hr at 4° C. and filtered through a 0.2 μm filter unit (Corning).
The protein was purified using two sequential chromatography steps: Heparin sepharose CL-6B and polyU sepharose 4B (Pharmacia). The chromatography buffers were identical to the lysis buffer but contained no lysozyme, deoxyribonuclease I, MgCl2 or protease inhibitor and the NaCl concentration of the buffer was adjusted according to the requirements for charging the protein onto the column. Each column was eluted with a NaCl gradient which varied in length from 5-50 column volumes depending on the column type. After the final chromatography step, the resulting purity of the enzyme is >90% based on SDS-PAGE analysis. The enzyme was aliquoted and stored at −80° C.
Standard HCV NS5B RdRp enzyme assay. HCV RdRp genotype 1b assays were run in a final volume of 60 μl in 96 well plates (Corning 3600). The assay buffer is composed of 20 mM Hepes, pH 7.5, 2.5 mM KCl, 2.5 mM MgCl2, 1 mM DTT, 1.6 U RNAse inhibitor (Promega N2515), 0.01 mg/ml BSA (Sigma B6917), and 2% glycerol. All compounds were serially diluted (3-fold) in DMSO and diluted further in water such that the final concentration of DMSO in the assay was 2%. HCV RdRp genotype 1b enzyme was used at a final concentration of 28 nM. A polyA template was used at 6 nM, and a biotinylated oligo-dT12 primer was used at 180 nM final concentration. Template was obtained commercially (Amersham 27-4110). Biotinylated primer was prepared by Sigma Genosys. 3H-UTP was used at (0.29 μM total UTP). Reactions were initiated by the addition of enzyme, incubated at 30° C. for 60 min, and stopped by adding 25 μl of 50 mM EDTA containing SPA beads (4 μg/μl, Amersham RPNQ 0007). Plates were read on a Packard Top Count NXT after >1 hr incubation at room temperature.
Modified HCV NS5B RdRp enzyme assay. A modified enzyme assay was performed essentially as described for the standard enzyme assay except for the following: The biotinylated oligo dT12 primer was precaptured on streptavidin-coated SPA beads by mixing primer and beads in assay buffer and incubating at room temperature for one hour. Unbound primer was removed after centrifugation. The primer-bound beads were resuspended in 20 mM Hepes buffer, pH 7.5 and used in the assay at final concentrations of 20 nM primer and […] beads. Order of addition in the assay: enzyme (1.75 nM) was added to diluted compound followed by the addition of a mixture of template (0.36 nM), 3H-UTP (0.6 μCi, 0.29 μM), and primer-bound beads, to initiate the reaction; concentrations given are final. Reactions were allowed to proceed for 4 hours at 30° C.
IC50 values for compounds were determined using seven different [I]. […]

HCV replicon cells = test: HCV replicon FRET / luciferase assay; type: cell-based; settings: Hepatitis C virus, 50% reduction in FRET or luciferase activity, numeric values
Method: FRET Assay Preparation. The HCV FRET screening assay was performed in 96-well cell culture plates. The FRET peptide (Anaspec, Inc.) (Taliani et al., Anal. Biochem. 1996, 240, 60-67) contains a fluorescence donor, EDANS, near one end of the peptide and an acceptor, DABCYL, near the other end. The fluorescence of the peptide is quenched by […] resonance energy transfer (RET) between the donor and the acceptor, but as the NS3 protease cleaves the peptide the products are released from RET quenching and the fluorescence of the donor becomes apparent. The assay reagent was made as follows: 5× cell Luciferase cell culture lysis reagent from Promega (#E153A) diluted to 1× with dH2O, NaCl added to 150 mM final, the FRET peptide diluted to 20 μM final from a 2 mM stock.
To prepare plates, HCV replicon cells, with or without a Renilla luciferase reporter gene, were trypsinized and plated in a 96-well plate with titrated test compounds added in columns 3 through 12; columns 1 and 2 contained a control compound (HCV control inhibitor), and the bottom row contained cells with DMSO only. The plates were then placed in a CO2 incubator at 37° C.
Assays. Subsequent to addition of the test compounds described above (FRET Assay Preparation), at various times the plate was removed and Alamar blue solution (Trek Diagnostics, #00-100) was added to measure cellular toxicity. After reading in a Cytoflour 4000 instrument (PE Biosystems), plates were rinsed with PBS and then used for FRET assay by the addition of 30 ul of the FRET peptide assay reagent described above (FRET Assay Preparation) per well. The plate was then placed into the Cytoflour 4000 instrument which had been set to 340 excite/490 emission, automatic mode for up to 20 cycles and the plate read in a kinetic mode. Typically, the signal to noise using an endpoint analysis after the reads was at least three-fold. Alternatively, after Alamar blue reading, plates were rinsed with PBS, then used for luciferase assay using the Promega Dual-Glo Luciferase Assay System or the Promega EnduRen Live Cell Substrate assay.
Compound analysis was performed by quantification of the relative HCV replicon inhibition and the relative cytotoxicity values. To calculate cytoxicity values, the average Alamar Blue fluorescence signals from the control wells were set as 100% non-toxic. The individual signals in each of the compound test wells were then divided by the average control signal and multiplied by 100% to determine […]. To calculate the HCV replicon inhibition values, an average background value was obtained from the two wells containing the highest amount of HCV control inhibitor at the end of the assay period. These numbers were similar to those obtained from naïve Huh-7 cells. The background numbers were then subtracted from the average signal obtained from the control wells and this number was used as 100% activity. The individual signals in each of the compound test wells were then divided by the averaged control values after background subtraction and multiplied by 100% to determine percent activity. EC50 values were calculated as the concentration which caused a 50% reduction in FRET or luciferase activity. The two numbers generated for the compound plate, percent cytoxicity and percent activity, were used to determine compounds of interest for further analysis.

Row | SMILES | IC50 (HCV NS5B RdRp) | EC50 (HCV replicon cells)
1 | COc1ccc2c(c1)C1CC1(C(=O)N1CCCCC1c1nccs1)Cn1c-2c(C2CCCCC2)c2ccc(C(=O)NS(=O)(=O)N(C)C)cc21 (stereo not drawn) | 70 nM | 290 nM
2 | COc1ccc2c(c1)C=C(C(=O)N1CCCCC1c1nccs1)Cn1c-2c(C2CCCCC2)c2ccc(C(=O)NS(=O)(=O)N(C)C)cc21 (stereo not drawn) | 100 nM | 460 nM
3 | COc1ccc2c(c1)[C@@H]1C[C@]1(C(=O)N1CCC(c3nnc(C)o3)CC1)Cn1c-2c(C2CCCCC2)c2ccc(C(=O)NS(=O)(=O)N(C)C)cc21 | 30 nM | 30 nM
